In PMC9189845, “Structure–Activity Relationships of 8-Hydroxyquinoline-Derived Mannich Bases with Tertiary Amines Targeting Multidrug-Resistant Cancer” (Journal of Medicinal Chemistry, 2022):
Read-outs that look alike come from different tables or passages of the source.

How the values were obtained:
[1] = tested on: MES-SA cells; assay: PrestoBlue viability assay, MES-SA cells; settings: for pIC50 value MES-SA: MES-SA cells, without TQ
[2] = tested on: MES-SA/Dx5 cells; assay: PrestoBlue viability assay, MES-SA/Dx5 cells (MDR, P-gp positive); settings: for pIC50 value MES-SA/Dx5: MES-SA/Dx5 cells, without TQ; for SR_TQ: selectivity ratio MES-SA vs MES-SA/Dx5, with TQ; for SR: selectivity ratio MES-SA vs MES-SA/Dx5, without TQ; for SR (MES-SA_TQ / Dx5_TQ) (values in parentheses): presence of 1 μM TQ
[3] = read-out: IC50 / μM MES-SA, absence of TQ, 72 h incubation
[4] = read-out: IC50 / μM MES-SA/Dx5, absence of TQ, 72 h incubation
[5] = Homo sapiens, MES-SA, 72 h, read-out: IC50 / μM MES-SA, absence of TQ, 72 h incubation
[6] = Homo sapiens, MES-SA, read-out: IC50 / μM MES-SA (values in parentheses), presence of 1 μM P-gp inhibitor tariquidar (TQ)
[7] = Homo sapiens, MES-SA, read-out: pIC50 value MES-SA+TQ, MES-SA cells, with TQ (converted)
[8] = Homo sapiens, MES-SA, read-out: pIC50 value MES-SA, MES-SA cells, without TQ (converted)
[9] = Homo sapiens, MES-SA/Dx5, 72 h, read-out: IC50 / μM MES-SA/Dx5, absence of TQ, 72 h incubation
[10] = Homo sapiens, MES-SA/Dx5, read-out: IC50 / μM MES-SA/Dx5 (values in parentheses), presence of 1 μM P-gp inhibitor tariquidar (TQ)
[11] = Homo sapiens, MES-SA/Dx5, read-out: pIC50 value MES-SA/Dx5, MES-SA/Dx5 cells, without TQ (converted)
[12] = fraction of IC50 in P-gp negative vs positive cells
[13] = Homo sapiens, MES-SA/Dx5, read-out: pIC50 value MES-SA/Dx5 + TQ, MES-SA/Dx5 cells, with TQ (converted)

Compound | SR [2] | IC50 [1, 5] [µM] | IC50 [1, 8] [µM] | IC50 [2, 9] [µM] | IC50 [2, 11] [µM] | also measured
CC1CCN(C(c2ccncc2)c2ccc3cccnc3c2O)CC1 (stereo not drawn) [Compound 100] | 2.74 |  |  |  |  | pIC50 value MES-SA [1]: 4.78; IC50 [1, 3]: 17.1 ± 3.89 µM; pIC50 value MES-SA/Dx5 [2]: 5.21; IC50 [2, 4]: 6.24 ± 1.17 µM; SR_TQ [2]: 4.37
Oc1c(CN2CCc3ccccc3C2)cc(Cl)c2cccnc12 [Compound 80] | 7.21 | 1.96 ± 0.22 | 1.95 | 0.27 ± 0.06 | 0.263 | IC50 [1, 6]: 1.81 µM; IC50 [1, 7]: 1.78 µM; IC50 [2, 10]: 1.05 µM; SR (MES-SA_TQ / Dx5_TQ) (values in parentheses) [2, 12]: 1.72; SR_TQ [2]: 1.72
Oc1c(C(c2ccccc2)N2CCOCC2)ccc2cccnc12 (stereo not drawn) [Compound 102] | 1.84 | 21.4 ± 1.01 | 21.4 | 11.7 ± 1.15 | 11.5 | 
CN1CCN(Cc2c(O)ccc3ccccc23)CC1 [Compound 75] |  | > 100 |  | > 100 |  | 
CC1CCN(C(c2ccccc2)c2ccc3cccnc3c2O)CC1 (racemic) [Compound 99] | 0.76 |  |  |  |  | pIC50 value MES-SA [1]: 5.06; IC50 [1, 3]: 8.77 ± 0.24 µM; pIC50 value MES-SA/Dx5 [2]: 4.95; IC50 [2, 4]: 11.5 ± 1.75 µM
Oc1c(C(c2ccc(Cl)cc2)N2CCCC2)ccc2cccnc12 (stereo not drawn) [Compound 87] | 3 |  |  |  |  | pIC50 value MES-SA [1]: 4.71; IC50 [1, 3]: 19.7 ± 2.25 µM; pIC50 value MES-SA/Dx5 [2]: 5.18; IC50 [2, 4]: 6.58 ± 0.53 µM; SR_TQ [2]: 1.35
CC(=O)c1ccc(O)c(CN2CCCCC2)c1 [Compound 62] |  | > 100 |  | > 100 |  | 
Oc1c(C(c2ccncc2)N2CCCC2)ccc2cccnc12 (stereo not drawn) [Compound 86] | 1.64 | 5.99 ± 0.88 | 5.89 | 3.66 ± 0.45 | 3.63 | 
CCN1CCN(C(c2cccnc2)c2cc(Cl)c3cccnc3c2O)CC1 (stereo not drawn) [Compound 118] | 0.92 | 21.4 ± 0.84 | 21.4 | 23.1 ± 4.67 | 22.4 | 
Oc1ccc(CN2CCCCCC2)c2cccnc12 [Compound 52] | 1.23 | 7.15 ± 0.27 | 7.08 | 5.84 ± 0.69 | 5.75 | 
Oc1c(C(c2ccccc2Br)N2CCCC2)ccc2cccnc12 (racemic) [Compound 88] | 1.98 |  |  |  |  | pIC50 value MES-SA [1]: 4.89; IC50 [1, 3]: 13 ± 1.35 µM; pIC50 value MES-SA/Dx5 [2]: 5.18; IC50 [2, 4]: 6.6 ± 0.21 µM; SR_TQ [2]: 1.55
CN1CCN(C(c2cccnc2)c2ccc3cccnc3c2O)CC1 (stereo not drawn) [Compound 111] | 1.53 | 54.8 ± 3.66 | 55 | 35.9 ± 4.93 | 35.5 | 
CCOC(=O)C1CCCN(Cc2cc(Cl)c3cccnc3c2O)C1 (stereo not drawn) [Compound 78] |  | 2.52 ± 0.22 |  | 0.43 ± 0.01 |  | IC50 [1, 6]: 2.14 µM; IC50 [2, 10]: 1.18 µM; SR (MES-SA / MES-SA/Dx5) ([2]; fraction of IC50 in P-gp negative vs positive cells, absence of TQ): 5.91; SR (MES-SA_TQ / Dx5_TQ) (values in parentheses) [2, 12]: 1.81
Oc1c(C(c2ccc(C(F)(F)F)cc2)N2CCCC2)ccc2cccnc12 (racemic) [Compound 89] | 3.91 |  |  |  |  | pIC50 value MES-SA [1]: 4.98; IC50 [1, 3]: 11.1 ± 3.57 µM; pIC50 value MES-SA/Dx5 [2]: 5.56; IC50 [2, 4]: 2.83 ± 0.61 µM; SR_TQ [2]: 1.12
Oc1ccc(CN2CCCC2)c2cccnc12 [Compound 46] | 1.47 | 7.81 ± 0.5 | 7.76 | 5.31 ± 0.52 | 5.25 | 
Cc1ccc(O)c(C(=O)N2CCOCC2)c1 [Compound 68] |  | > 100 | 380 | > 100 |  | 
O=C1CCCN1Cc1cc(Cl)c2cccnc2c1O [Compound 76] | 0.84 | 10.2 ± 0.25 | 10.2 | 12.2 ± 0.55 | 12 | 
Oc1c(C(c2ccccn2)N2CCOCC2)ccc2cccnc12 (stereo not drawn) [Compound 103] | 1.62 | 23.6 ± 3.13 | 23.4 | 14.6 ± 2.97 | 14.1 | 
COc1ccc(C(C)=O)cc1CN1CCCCC1 [Compound 63] |  | > 100 |  | > 100 |  | 
Cc1ccc(C(c2cc(Cl)c3cccnc3c2O)N2CCCC2)cc1 (stereo not drawn) [Compound 91] | 2.18 | 13.2 ± 3.09 | 12.9 | 6.06 ± 2.21 | 5.62 | IC50 [1, 7]: 8.91 µM; IC50 [2, 13]: 2.34 µM; SR_TQ [2]: 3.8
Oc1ccc2ccccc2c1CN1CCOCC1 [Compound 69] |  | > 100 |  | > 100 |  | 
Oc1c(C(c2ccccc2Cl)N2CCCCC2)ccc2cccnc12 (stereo not drawn) [Compound 95] | 1.85 |  |  |  |  | pIC50 value MES-SA [1]: 4.77; IC50 [1, 3]: 17.5 ± 4.45 µM; pIC50 value MES-SA/Dx5 [2]: 5.04; IC50 [2, 4]: 9.45 ± 2.11 µM; SR_TQ [2]: 2.75

Compound | SR [2] | IC50 [1, 5] [µM] | IC50 [1, 8] [µM] | IC50 [2, 9] [µM] | IC50 [2, 11] [µM] | also measured
Oc1ccccc1CN1CCOCC1 [Compound 65] |  | > 100 |  | > 100 |  | 
Oc1c(C(c2cccs2)N2CCOCC2)cc(Cl)c2cccnc12 (stereo not drawn) [Compound 110] | 0.57 | 7.97 ± 1.01 | 7.94 | 14 ± 0.42 | 13.8 | 
COc1ccc(O)c(CN2CCN(C)CC2)c1 [Compound 73] |  | > 100 |  | > 100 |  | 
CCN1CCN(Cc2cc(OC)ccc2O)CC1 [Compound 74] |  | > 100 |  | > 100 |  | 
CC1CCN(C(c2cccs2)c2ccc3cccnc3c2O)CC1 (racemic) [Compound 101] | 0.65 |  |  |  |  | pIC50 value MES-SA [1]: 4.97; IC50 [1, 3]: 10.8 ± 0.18 µM; pIC50 value MES-SA/Dx5 [2]: 4.78; IC50 [2, 4]: 16.6 ± 0.81 µM
OCCN1CCN(C(c2ccccc2)c2ccc3cccnc3c2O)CC1 (stereo not drawn) [Compound 119] | 1.53 |  |  |  |  | pIC50 value MES-SA [1]: 4.69; IC50 [1, 3]: 20.7 ± 0.97 µM; pIC50 value MES-SA/Dx5 [2]: 4.88; IC50 [2, 4]: 13.5 ± 2.55 µM; SR_TQ [2]: 1.7
Oc1ccccc1C(=S)N1CCOCC1 [Compound 66] |  | > 100 |  | > 100 |  | 
Oc1c(C(c2ccncc2)N2CCOCC2)ccc2cccnc12 (stereo not drawn) [Compound 104] | 2.12 | 15.2 ± 2.74 | 14.8 | 7.14 ± 1.26 | 7.08 | IC50 [1, 7]: 21.9 µM; IC50 [2, 13]: 15.1 µM; SR_TQ [2]: 1.45
COc1ccc(C(c2ccc3cccnc3c2O)N2CCOCC2)cc1 (stereo not drawn) [Compound 107] | 1.29 |  |  |  |  | pIC50 value MES-SA [1]: 4.69; IC50 [1, 3]: 20.3 ± 1.7 µM; pIC50 value MES-SA/Dx5 [2]: 4.81; IC50 [2, 4]: 15.8 ± 2.97 µM
Oc1ccccc1CN1CCCCC1 [Compound 59] |  | > 100 |  | > 100 |  | 
CN1CCN(C(c2cccs2)c2ccc3cccnc3c2O)CC1 (stereo not drawn) [Compound 113] | 0.76 | 12.8 ± 1.72 | 12.6 | 16.79 ± 0.08 | 16.6 | 
Oc1ccc2ccncc2c1CN1CCCC(C(F)(F)F)C1 (stereo not drawn) [Compound 64] |  | > 100 |  | > 100 |  | 
CCN1CCN(C(c2ccccn2)c2cc(Cl)c3cccnc3c2O)CC1 (stereo not drawn) [Compound 117] | 1.16 | 28.3 ± 2.32 | 28.2 | 24.4 ± 3.58 | 24 | 
Oc1ccc(CN2CCOCC2)c2cccnc12 [Compound 54] | 0.73 | 6.99 ± 0.31 | 6.92 | 9.58 ± 0.33 | 9.55 | 
O=C(c1ccccc1O)N1CCOCC1 [Compound 67] |  | > 100 |  | > 100 |  | 
Oc1c(C(c2ccc(F)cc2)N2CCOCC2)ccc2cccnc12 (stereo not drawn) [Compound 106] | 2.24 |  |  |  |  | pIC50 value MES-SA [1]: 4.51; IC50 [1, 3]: 33.4 ± 13.2 µM; pIC50 value MES-SA/Dx5 [2]: 4.86; IC50 [2, 4]: 14.9 ± 6.17 µM; SR_TQ [2]: 1.15
CCN1CCN(C(c2cccnc2)c2ccc3cccnc3c2O)CC1 (stereo not drawn) [Compound 115] | 1.99 | 20.6 ± 1.85 | 20.4 | 10.3 ± 3.54 | 9.77 | IC50 [1, 7]: 24 µM; IC50 [2, 13]: 22.9 µM; SR_TQ [2]: 1.05
Oc1c(C(c2cccnc2)N2CCOCC2)cc(Cl)c2cccnc12 (stereo not drawn) [Compound 109] | 1.55 | 51 ± 2.48 | 51.3 | 32.9 ± 7.06 | 32.4 | 
CCN(CC)Cc1ccc(O)c2ncccc12 [Compound 45] | 0.9 | 4.5 ± 0.04 | 4.47 | 5.02 ± 0.26 | 5.01 | 
CCOC(=O)C1CCN(Cc2ccc(O)c3ncccc23)CC1 [Compound 48] | 1.31 | 4.62 ± 1.03 | 4.47 | 3.54 ± 0.72 | 3.47 | 
Oc1c(C(c2ccncc2)N2CCCCC2)ccc2cccnc12 (stereo not drawn) [Compound 93] | 1.93 |  |  |  |  | pIC50 value MES-SA [1]: 4.81; IC50 [1, 3]: 16.2 ± 4.33 µM; pIC50 value MES-SA/Dx5 [2]: 5.08; IC50 [2, 4]: 8.39 ± 1.09 µM; SR_TQ [2]: 1.1
CC1CCCCN1Cc1cc(Cl)c2cccnc2c1O (stereo not drawn) [Compound 77] | 7.57 | 2.57 ± 0.1 | 2.57 | 0.34 ± 0.03 | 0.339 | IC50 [1, 6]: 2.35 µM; IC50 [1, 7]: 2.34 µM; IC50 [2, 10]: 1.55 µM; SR (MES-SA_TQ / Dx5_TQ) (values in parentheses) [2, 12]: 1.51; SR_TQ [2]: 1.51
